Here are results for three compounds from patent US8501734B2, “Medical intervention in haematological cancers” (Oncotyrol-Center for Personalized Cancer Medicine GmbH …, priority 2008, dated 2013).

The conditions of data set [1]: in vivo; cited from earlier work.
In the next data set the test system is OPM2 cells. Briefly: Annexin V/PI apoptosis assay (FACS), OPM2 cells. In kind it is cell-based. Also on record: apoptosis induction: unit not given here. The following applies: OPM2 cells. As to the method:
(§1) After treatment adherent cells were trypsinized (as described before), and resuspended in corresponding full medium. Suspension cells or trypsinized adherent cells, supernatant and washing solution (1×PBS from washing before trypsinization) were pooled and then spun down (300 g for 3 min) washed in 2 ml and resuspended in 1000 of annexin V binding buffer and mixed with 2 μg/ml annexin V-Allophycocyanin (APC) (BD-Pharmingen, San Diego, Calif., USA) and 50 ng/ml of propidium iodide (PI; Sigma Aldrich). At least 10.000 cells were measured per sample using a Becton Dickinson FACSCalibur flow Cytometer (San Jose, Calif., USA). Percentage of Annexin V negative and PI negative cells were depicted in the figures. For the analysis of the pro-apoptotic activity of Imiquimod® in primary MM cells and non-malignant BMMCs, 5×10^5 cells BMMCs cells were treated with or without 40 μg/ml Imiquimod® for the indicated time periods. Cells were then harvested and washed twice with PBS. Detection of apoptotic cells was performed using the annexin V/PI assay according to manufacturers' instruction. Briefly, BMMCs were stained with a mixture of annexin V/FITC (Alexis Coorp., Laeufelfingen, Switzerland), propidium iodide (Sigma), anti-CD38-PE and anti-CD45-PC5 for 15 min at room temperature and immediately analyzed by flow cytometry. The percentages of viable cells (i.e. cells negative for annexin V/FITC and PI) within the MM (CD38^posCD45^low/absent) and non-MM fraction (CD38^neg/CD45^pos) were determined by flow cytometry.
Cells were cultured as described before and, treated with 40 μg/ml Imiquimod® or Gardiquimod® for 24 h, and apoptosis was assayed by AnnexinV/PI staining and FACS analysis.
(§2) Adherent cells were grown in 24-well plates to confluence and treated with 40 μg/ml Imiquimod® for 24 h. Cells were then trypsinized, suspended in full medium, stained for AnnexinV/PI and apoptosis was measured as described before. Suspension cells (250.000) were treated with 40 μg/ml Imiquimod® for 24 h, stained for Annexin/PI and apoptosis was measured as described above (Annexin V/Propidium Iodide apoptosis Assay).
(§3) OPM-2 and U266 cells (2.5×10^5 in 500 μl) were treated with either Imiquimod® alone (10 μg/500 μl), various inhibitors/drugs alone or with the combination of Imiquimod® and inhibitors for 24 or 48 h. In the controls the solvent of the drug has been added in appropriate amounts. Cells were then AnnexinV/PI stained and apoptosis measured as described before.

The next data set concerns U266 cells. In words: Annexin V/PI apoptosis assay (FACS), U266 cells. Further: key: 0 for no; + for low; ++: + indicates the range of apoptosis induction; +++: + indicates the range of apoptosis induction; ++++ for very strong apoptosis induction. In kind it is cell-based. On the set-up: apoptosis induction: unit not given here. On the procedure: as §1, §2, §3
Setting [2] is: 24 h, Imi 20 μg/ml + drug 10 μM.
The mark [3] stands for this setting: 24 h, Imi 20 μg/ml + drug 100 μM.
The mark [4] stands for this setting: 48 h, Imi 20 μg/ml + drug 10 μM.
The mark [5] stands for this setting: 48 h, Imi 20 μg/ml + drug 100 μM.
Where [6] appears, read: 24 h, Imi 20 μg/ml + drug 50 μM.
[7] abbreviates: 48 h, Imi 20 μg/ml + drug 50 μM.

For `CCn1c(-c2nonc2N)nc2c(C#CC(C)(C)O)ncc(OC[C@H]3CCCNC3)c21` [GSK690693], the “reason for withdrawal and termination of clinical phase I studies” value in data set [1] is recorded as “hyperglycaemia”.

Take `O=C1CCC(N2C(=O)c3ccccc3C2=O)C(=O)N1` (stereo not drawn) [Thalidomide]: the apoptosis induction result is given as “+” in the data set on OPM2 cells (setting [2]); “+” in the data set on OPM2 cells (setting [3]); “+” in the data set on OPM2 cells (24 h, Imi 20 μg/ml + drug 1 mM); 0 in the data set with OPM2 cells (24 h, drug alone 10 μM); 0 with OPM2 cells (24 h, drug alone 100 μM); 0 with OPM2 cells (24 h, drug alone 1 mM). In addition, the apoptosis induction entry in the data set on OPM2 cells (setting [4]) is on record as “++”; in the data set with OPM2 cells (setting [5]), “++”; in the data set with OPM2 cells (48 h, Imi 20 μg/ml + drug 1 mM), “+++”; in the data set on OPM2 cells (48 h, drug alone 10 μM) it was 0; in the data set on OPM2 cells (48 h, drug alone 100 μM) it was 0; in the data set on OPM2 cells (48 h, drug alone 1 mM) it was 0. For the same compound, the apoptosis induction entry is recorded as “+” with U266 cells (setting [2]); “+” with U266 cells (setting [3]); “+” in the data set on U266 cells (24 h, Imi 20 μg/ml + drug 1 mM); 0 with U266 cells (24 h, drug alone 10 μM); 0 in the data set on U266 cells (24 h, drug alone 100 μM); “+” in the data set with U266 cells (24 h, drug alone 1 mM). The apoptosis induction entry with U266 cells (setting [4]) is given as “+”; with U266 cells (setting [5]) it was “+”; with U266 cells (48 h, Imi 20 μg/ml + drug 1 mM), “+”; in the data set with U266 cells (48 h, drug alone 10 μM) it was 0; in the data set with U266 cells (48 h, drug alone 100 μM) it was 0; in the data set on U266 cells (48 h, drug alone 1 mM) it was “+”.

On to `CNC(=O)c1cc(Oc2ccc(NC(=O)Nc3ccc(Cl)c(C(F)(F)F)c3)cc2)ccn1` [Sorafenib], for which the apoptosis induction entry in the data set with OPM2 cells (24 h, Imi 20 μg/ml + drug 1 μM) is “+”; with OPM2 cells (setting [2]), “+”; with OPM2 cells (setting [6]), “++++”; with OPM2 cells (24 h, drug alone 1 μM) it was 0; with OPM2 cells (24 h, drug alone 10 μM), “+”; in the data set with OPM2 cells (24 h, drug alone 50 μM), “++++”. The apoptosis induction result is “++” in the data set on OPM2 cells (48 h, Imi 20 μg/ml + drug 1 μM); “++++” with OPM2 cells (setting [4]); “++++” in the data set with OPM2 cells (setting [7]); 0 in the data set on OPM2 cells (48 h, drug alone 1 μM); “++” with OPM2 cells (48 h, drug alone 10 μM); “++++” in the data set with OPM2 cells (48 h, drug alone 50 μM). For the same compound, the apoptosis induction is recorded as 0 in the data set with U266 cells (24 h, Imi 20 μg/ml + drug 1 μM); “+” in the data set with U266 cells (setting [2]); “+++” in the data set with U266 cells (setting [6]); 0 with U266 cells (24 h, drug alone 1 μM); 0 in the data set on U266 cells (24 h, drug alone 10 μM); “+++” in the data set on U266 cells (24 h, drug alone 50 μM). For the same compound, the apoptosis induction result with U266 cells (48 h, Imi 20 μg/ml + drug 1 μM) is listed as “+”; in the data set with U266 cells (setting [4]) it was “++”; in the data set with U266 cells (setting [7]), “+++”; with U266 cells (48 h, drug alone 1 μM), “+”; in the data set on U266 cells (48 h, drug alone 10 μM), “+”; in the data set with U266 cells (48 h, drug alone 50 μM), “+++”. Besides, the cells in apoptosis with OPM2 cells (48 h, 10 μM drug + Imiquimod 20 μg/ml) was about 100%. In the data set on OPM2 cells (drug alone 50 μM), the cell killing entry is reported as “completely killed cells”.
